Entries after “also recorded” stand apart in the source; their conditions may differ.
Tested on: CT26 syngeneic tumors overexpressing human PD-L1 (Clone299)
Test: Human PD-1/human PD-L1 dual knock-in model
Assay type: in vivo, human PD-1/human PD-L1 dual Knock-In mice
Experimental: The in vivo effect of combining Compound 1 plus (R)-1-((7-cyano-2-(3′-(2-(difluoromethyl)-7-((3-hydroxypyrrolidin-1-yl)methyl)pyrido[3,2-d]pyrimidin-4-ylamino)-2,2′-dimethylbiphenyl-3-yl)benzo[d]oxazol-5-yl)methyl)piperidine-4-carboxylic acid (i.e., Compound A) was assessed in 8 to 10 weeks old human PD-1/human PD-L1 dual Knock-In mice (GemPharmatech, Shanghai, China) using CT26 syngeneic tumors overexpressing human PD-L1 (Clone299, Synthego, California). Both Compound 1 and Compound A were suspended in 5% N,N-dimethylacetamide (DMAC)+50 mM Citrate buffer in 0.5% methyl cellulose for oral administration. […] On day 17, tumor dimensions were measured by Vernier calipers, and volume estimated by the formula Volume=[L (long dimension)×W^2 (short dimension)]/2. […] Tumors were measured 3 times per week for the duration of the study. […]
The in vivo effect of Compound 2 plus Anti-PD-L1 (atezolizumab) was assessed in 8 to 10 weeks old human PD-1/human PD-L1 dual Knock-In mice (GemPharmatech, Shanghai, China) using CT26 syngeneic tumors overexpressing human PD-L1 (Clone299, Synthego, California). […] On day 12, tumor dimensions were measured by Vernier calipers, and volume estimated by the formula Volume=[L (long dimension)×W^2 (short dimension)]/2. […] Tumors were measured 3 times per week for the duration of the study. […]

Structure (SMILES)	TGI, combined with Anti-PD-L1 mAb, vs Anti-PD-L1 mAb control group (1.5 mg/kg Compound 2 Q2D and Anti-PD-L1 (atezolizumab), FIG. 8)	combination effect on tumor growth delay (Bliss Independence analysis) (10 mg/kg Compound 1 QD with 25 mg/kg Compound A BID for 15 days, vs respective controls, FIG. 4)
Cc1nc2c(N3C[C@@H](C)N(C(c4ccc(C(F)(F)F)cc4)C4CC(F)(F)C4)C[C@@H]3C)nc3nncn3c2n1C[C@@H]1CCCO1 (single isomer, unassigned) [Example 2]	statistically significant; also recorded: significant TGI	–
C[C@@H]1CN(c2nc3nncn3c3c2nnn3C[C@H]2CCCO2)[C@@H](C)CN1C(c1ccc(F)cc1)c1ccc(F)cc1 [Example 1, 4-((2S,5R)-4-(Bis(4-fluorophenyl)methyl)-2,5-dimethylpiperazin-1-yl)-1-(((R)-tetrahydrofuran-2-yl)methyl)-1H-[1,2,3]triazolo[4,5-e][1,2,4]triazolo[4,3-a]pyrimidine]	–	synergistic effect in tumor growth delay

Source: patent US20250186450A1, “COMBINATION THERAPY COMPRISING DGK INHIBITORS and PD-1/PD-L1 INHIBITORS” (Incyte Corporation, priority 2023, published 2025)
